{"source": "paper PMC2606016", "about": "(The Journal of Biological Chemistry, 2008)", "key": {"HoNTT": {"target": "T1, HoNTT (Holospora obtusa, UniProt W6TTK3)", "T1 sequence (W6TTK3 1-514)": "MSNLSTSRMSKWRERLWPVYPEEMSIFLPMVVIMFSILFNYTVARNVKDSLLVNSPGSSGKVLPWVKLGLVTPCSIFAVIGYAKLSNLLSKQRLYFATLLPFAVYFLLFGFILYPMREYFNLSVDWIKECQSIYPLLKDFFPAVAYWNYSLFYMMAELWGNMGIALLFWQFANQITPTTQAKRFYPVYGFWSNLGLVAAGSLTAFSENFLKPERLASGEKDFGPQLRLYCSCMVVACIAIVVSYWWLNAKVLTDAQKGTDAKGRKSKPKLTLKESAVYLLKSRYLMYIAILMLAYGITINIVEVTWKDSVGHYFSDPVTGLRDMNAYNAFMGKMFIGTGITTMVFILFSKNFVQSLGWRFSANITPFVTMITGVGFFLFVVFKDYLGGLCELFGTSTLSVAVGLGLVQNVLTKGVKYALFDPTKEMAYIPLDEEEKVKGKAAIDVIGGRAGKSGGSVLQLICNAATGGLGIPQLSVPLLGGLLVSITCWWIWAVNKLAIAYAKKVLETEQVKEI", "conditions": "30 °C; labelled compound"}, "AtNTT1": {"target": "T2, AtNTT1 (Arabidopsis thaliana, UniProt Q39002)", "T2 sequence (Q39002 87-624)": "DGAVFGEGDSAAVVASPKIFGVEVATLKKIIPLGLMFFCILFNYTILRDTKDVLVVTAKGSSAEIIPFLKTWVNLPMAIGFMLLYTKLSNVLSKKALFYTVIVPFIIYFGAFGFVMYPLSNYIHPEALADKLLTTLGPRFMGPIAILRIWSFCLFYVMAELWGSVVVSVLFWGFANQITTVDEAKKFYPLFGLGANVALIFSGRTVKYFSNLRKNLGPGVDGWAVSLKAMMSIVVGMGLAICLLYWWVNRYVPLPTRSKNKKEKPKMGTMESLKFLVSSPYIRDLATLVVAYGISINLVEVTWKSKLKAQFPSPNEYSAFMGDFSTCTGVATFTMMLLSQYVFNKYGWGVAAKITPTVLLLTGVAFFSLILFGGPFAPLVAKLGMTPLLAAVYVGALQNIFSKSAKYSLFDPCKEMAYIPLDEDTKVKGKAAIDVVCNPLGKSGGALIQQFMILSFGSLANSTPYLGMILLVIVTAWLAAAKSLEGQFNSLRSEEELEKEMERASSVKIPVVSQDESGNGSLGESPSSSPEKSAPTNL", "conditions": "30 °C; labelled compound"}}}
{"smiles": "Nc1ncnc2c1ncn2[C@@H]1O[C@H](COP(=O)(O)OP(=O)(O)OP(=O)(O)O)[C@@H](O)[C@H]1O", "note": "[ATP]", "values": [{"measurement": "uptake of labelled substrate into proteoliposomes", "setting": "HoNTT", "value": "All recombinant carriers mediated ATP and ADP transport"}, {"measurement": "uptake of labelled substrate into proteoliposomes", "setting": "AtNTT1", "value": "All recombinant carriers mediated ATP and ADP transport"}]}
